Several values for one entry are separate records, joined by “and”; a condition that tells them apart may be missing. Equal values may be shown once.
Tested on: MDCK cells
Test: MTT assay (cytotoxicity against MDCK cells)
Format: cell-based, canine
Conditions: MDCK cells; for MTT, DMSO as 100 (DMSOを 100として), ave / MTT 72h AVE (DMSO = 100): 72h; for MTT, DMSO as 100 (DMSOを 100として), ave: mean of 5 wells (200409 #1 and #3); for MTT 72h AVE (DMSO = 100): summary AVE; for MTT 24h, AVE (DMSO as 100): 0.78 uM, relative to DMSO = 100; for MTT 24h, AVE (DMSO as 100) / MTT 24h, 570-650nm, DMSO as 100, ave: mean of 5 wells from 3 experiments; for MTT 24h, 570-650nm, DMSO as 100, single replicate: individual wells (200331; 200403 #2 1,2; 200403 #3 1,2); for 570-650nm (MTT absorbance, single wells) / 570-650nm ave (mean MTT absorbance of 5 wells) / MTT absorbance with DMSO as 100 (DMSOを 100として), single wells: MTT 72h; for 570-650nm (MTT absorbance, single wells): experiments #1-#3, duplicate wells; for MTT absorbance with DMSO as 100 (DMSOを 100として), single wells: relative to mean of DMSO
Procedure: 1–5 (0.8–100 μM) were prepared in DMSO (100 μM, 1%; 50 μM, 0.5%; 25 μM, 0.25%; 12.5 μM, 0.125%; 6.3 μM, 0.063%; 3.1 μM, 0.031%; 1.6 μM, 0.016%; 0.8 μM, 0.008%) and mixed with infection medium (DMEM supplemented with 1% bovine serum albumin (BSA; Wako), P/S and 4 mM L-glutamine). The resulting mixture was added to the cells and incubated for 24 or 72 h at 37°C in the presence of 5% CO2. After incubation, cell viability was determined using an MTT cell count kit (Nacalai Tesque) according to the manufacturer’s instructions, as previously described.

[1] = 3.13uM (3.125uM in summary block)

Structure (SMILES) | MTT, DMSO as 100 (DMSOを 100として), ave (0.78uM) | MTT, DMSO as 100 (DMSOを 100として), ave (1.56uM) | MTT 72h AVE (DMSO = 100) (6.25 (uM)) | MTT 72h AVE (DMSO = 100) (12.5 (uM)) | MTT 72h AVE (DMSO = 100) (25 (uM)) | MTT 72h AVE (DMSO = 100) (50 (uM)) | MTT 72h AVE (DMSO = 100) (100 (uM)) | MTT 24h, AVE (DMSO as 100) | MTT 24h, 570-650nm, DMSO as 100, single replicate (1.56uM) | MTT 24h, 570-650nm, DMSO as 100, ave (1.56uM) | MTT 24h, 570-650nm, DMSO as 100, single replicate (3.125uM) | MTT 24h, 570-650nm, DMSO as 100, ave (3.125uM) | MTT 24h, 570-650nm, DMSO as 100, single replicate (6.25uM) | MTT 24h, 570-650nm, DMSO as 100, ave (6.25uM) | MTT 24h, 570-650nm, DMSO as 100, single replicate (12.5uM) | MTT 24h, 570-650nm, DMSO as 100, ave (12.5uM) | MTT 24h, 570-650nm, DMSO as 100, single replicate (25uM) | MTT 24h, 570-650nm, DMSO as 100, ave (25uM) | MTT 24h, 570-650nm, DMSO as 100, single replicate (50uM) | MTT 24h, 570-650nm, DMSO as 100, ave (50uM) | further results
C=C[C@@](C)(/C=C/c1ccc(O)cc1)CCC=C(C)C [(+)-(S)-baku.] | 101.639 | 110.926 | 135.974 | 116.119 | 164.273 | 107.359 | 28.7987 | 106.986 | 103.696 and 92.7462 and 106.461 and 104.983 and 94.4526 | 100.468 | 107.294 and 97.5488 and 102.772 and 101.94 and 95.2685 | 100.964 | 108.582 and 98.5976 and 113.546 and 113.49 and 101.426 | 107.128 | 102.57 and 93.2171 and 103.913 and 112.439 and 104.302 | 103.288 | 108.875 and 109.835 and 96.176 and 115.944 and 106.769 | 107.52 | 119.708 and 122.77 and 91.784 and 117.912 and 113.767 | 113.188 | MTT 72h AVE (DMSO = 100) (3.13 (uM)): 132.176; MTT 24h, 570-650nm, DMSO as 100, single replicate (100uM): 79.067 and 84.0157 and 140.292 and 89.6781 and 39.1391; MTT 24h, 570-650nm, DMSO as 100, ave (100uM): 86.4384; 570-650nm (MTT absorbance, single wells) (0.78uM): 0.9216 and 1.0625 and 0.5565 and 0.8595 and 0.8044 and 0.7519; 570-650nm (MTT absorbance, single wells) (1.56uM): 0.9826 and 0.8065 and 0.7089 and 0.7456 and 0.6067 and 0.9846; 570-650nm ave (mean MTT absorbance of 5 wells) (3.125uM): 0.8903; MTT absorbance with DMSO as 100 (DMSOを 100として), single wells (3.125uM): 116.345 and 146.749 and 122.432 and 152.375 and 122.981; 570-650nm (MTT absorbance, single wells) [1]: 0.8284 and 0.7837 and 0.9885 and 0.8247 and 1.0264 and 0.8069; 570-650nm ave (mean MTT absorbance of 5 wells) (6.25uM): 0.9301; 570-650nm (MTT absorbance, single wells) (6.25uM): 0.9089 and 0.9123 and 0.7679 and 0.9049 and 1.1563 and 0.9272; MTT absorbance with DMSO as 100 (DMSOを 100として), single wells (6.25uM): 133.377 and 112.266 and 132.295 and 169.05 and 132.88; 570-650nm ave (mean MTT absorbance of 5 wells) (12.5uM): 0.9243; 570-650nm ave (mean MTT absorbance of 5 wells) (25uM): 1.2355; 570-650nm (MTT absorbance, single wells) (25uM): 1.2252 and 1.1953 and 1.2444 and 1.2282 and 1.1748 and 1.3049; MTT absorbance with DMSO as 100 (DMSOを 100として), single wells (25uM): 165.457 and 163.303 and 156.203 and 173.501 and 162.904; 570-650nm ave (mean MTT absorbance of 5 wells) (50uM): 0.9798; 570-650nm ave (mean MTT absorbance of 5 wells) (100uM): 0.2711; 570-650nm (MTT absorbance, single wells) (100uM): 0.1982 and 0.2036 and 0.3213 and 0.2978 and 0.3355 and 0.2029; MTT absorbance with DMSO as 100 (DMSOを 100として), single wells (100uM): 34.1264 and 31.6304 and 35.6346 and 21.5507 and 21.0515
C=C[C@]1(C)CC[C@H](C(=C)C)[C@@H](c2ccc(O)cc2)C1 [Cyclo. A] | 105.716 | 110.791 | 127.594 | 109.498 | 139.303 | 115.79 | 76.9772 | 98.7342 | 96.4276 and 83.3373 and 92.051 and 113.855 and 70.8632 | 91.3068 | 90.7466 and 86.7485 and 103.011 and 110.013 and 65.2713 | 91.158 | 105.57 and 88.5259 and 94.0239 and 117.378 and 78.8606 | 96.8717 | 102.53 and 101.147 and 92.3748 and 125.129 and 78.3815 | 99.9126 | 98.9543 and 93.1175 and 86.0556 and 130.26 and 81.3877 | 97.9551 | 112.693 and 118.709 and 75.6574 and 146.7 and 98.6391 | 110.48 | MTT, DMSO as 100 (DMSOを 100として), ave (3.125uM): 135.974; MTT 24h, 570-650nm, DMSO as 100, single replicate (100uM): 18.7526 and 22.4148 and 109.83 and 20.6307 and 19.4099; MTT 24h, 570-650nm, DMSO as 100, ave (100uM): 38.2076; 570-650nm (MTT absorbance, single wells) (0.78uM): 0.7522 and 1.0518 and 0.8482 and 0.7789 and 0.8023 and 0.8685; 570-650nm (MTT absorbance, single wells) [1]: 0.6647 and 0.8265 and 0.8832 and 1.0096 and 1.017 and 1.0051; 570-650nm ave (mean MTT absorbance of 5 wells) (6.25uM): 0.8727; 570-650nm (MTT absorbance, single wells) (6.25uM): 0.8664 and 0.8077 and 0.726 and 1.0037 and 0.9599 and 0.9185; MTT absorbance with DMSO as 100 (DMSOを 100として), single wells (6.25uM): 118.085 and 106.14 and 146.74 and 140.336 and 126.667; 570-650nm ave (mean MTT absorbance of 5 wells) (12.5uM): 0.8716; 570-650nm (MTT absorbance, single wells) (12.5uM): 0.7966 and 0.8514 and 0.5539 and 1.0521 and 0.9774 and 0.9778; MTT absorbance with DMSO as 100 (DMSOを 100として), single wells (12.5uM): 69.5889 and 132.18 and 122.795 and 122.845 and 100.08; 570-650nm ave (mean MTT absorbance of 5 wells) (25uM): 1.0477; 570-650nm (MTT absorbance, single wells) (25uM): 0.9324 and 1.0073 and 0.9924 and 1.0024 and 1.1748 and 1.1365; MTT absorbance with DMSO as 100 (DMSOを 100として), single wells (25uM): 131.951 and 133.28 and 156.203 and 151.11 and 123.973; 570-650nm ave (mean MTT absorbance of 5 wells) (50uM): 1.057; 570-650nm (MTT absorbance, single wells) (50uM): 1.0423 and 1.105 and 0.762 and 0.9117 and 1.3276 and 1.24; MTT absorbance with DMSO as 100 (DMSOを 100として), single wells (50uM): 83.4959 and 99.8992 and 145.471 and 135.873 and 114.21; 570-650nm ave (mean MTT absorbance of 5 wells) (100uM): 0.7247

From publication PMC7997032, “Organic synthesis and anti-influenza A virus activity of cyclobakuchiols A, B, C, and D” (PLoS ONE, 2021)
